Measured values from ChEMBL document CHEMBL1201862, “PubChem BioAssay data set” (2004).
The source made the active and inactive calls.

Tests used:
[1] = molecular target: T1, Polyadenylate-binding protein 1 (Homo sapiens, UniProt P11940); test: PABP1 MLLE–PAM2 interaction inhibitors, dose response, miRNA deadenylation inhibitor project, biochemical, fluorescence polarization, Cy5-PAM2 peptide, secondary (AID 602260); format: functional; conditions: read-out: IC50_Mean
[2] = molecular target: T1, Polyadenylate-binding protein 1; test: PABP1 MLLE–PAM2 binding inhibitor potency, dose response, biochemical, fluorescence polarization, FITC-PAM2 peptide (AID 602259); format: functional; conditions: read-out: IC50_Mean
[3] = growth suppression of PTEN-null colon cells, dose response, cell-based, HCT116 PTEN knockout (AID 1047); format: functional;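 further: HCT116 colon tumor cells with PTEN knocked out; cells exposed to compound for 60 hours before readout; potency for loss of cell viability measured by luminescence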
[4] = growth suppression of beta-catenin-knockout colon cells, dose response, cell-based, HCT116, human colon tumor (AID 1045); format: functional;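 further: HCT116 colon tumor cells with beta catenin knocked out; cells exposed to compound for 60 hours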
[5] = inhibitors of SNCA 5'UTR-driven reporter translation, confirmation, H4 neuroglioma cells, luminescence (AID 1988); format: functional, cell-based
[6] = Luminescence Cell-Based Dose Response HTS to Identify Inhibitors of 5'UTR Stem-Loop Driven Prion Protein mRNA Translation in H4 Neuroglioblastoma Cells. [Related pubchem assays: 1827 (Project Summary), 1813 (Primary HTS)]; format: functional
[7] = inhibitors of firefly luciferase expression or activity, dose response, H4 neuroglioma cells, luminescence (AID 1990); format: functional, cell-based
[8] = test system: H9c2; test: cells; format: functional, cell-based; conditions: Rattus norvegicus, H9c2, Myocardium;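 further: confirmatory concentration-response retest of ultra-high-throughput screening hits for modulation of myocardial damage; cell death induced by hydrogen peroxide oxidative stress; compound pretreatment for 60 min then peroxide exposure for 2 h; potency is for protecting the cells against peroxide damage rather than for killing them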
[9] = molecular target: T2, RNA-binding protein pos-1 (Caenorhabditis elegans, UniProt G5EF15); test: inhibitors of POS-1/mex-3 RNA binding, dose response, biochemical, fluorescence polarization (AID 1964);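 further: purified POS-1 fused to maltose binding protein made in E. coli; potency of compounds blocking POS-1 binding to fluorescent RNA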
T2 sequence (G5EF15 whole entry): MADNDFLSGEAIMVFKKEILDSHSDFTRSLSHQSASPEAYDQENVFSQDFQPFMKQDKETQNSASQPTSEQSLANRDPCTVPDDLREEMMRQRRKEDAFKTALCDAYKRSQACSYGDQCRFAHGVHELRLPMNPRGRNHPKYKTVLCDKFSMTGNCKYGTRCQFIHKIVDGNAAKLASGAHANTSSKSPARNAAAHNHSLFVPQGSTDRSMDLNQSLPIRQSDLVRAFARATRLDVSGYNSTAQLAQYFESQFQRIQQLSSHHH

[10] = molecular target: T3, Zinc finger protein mex-5 (Caenorhabditis elegans, UniProt Q9XUB2); test: MEX-5/TCR-2 RNA interaction inhibitors, dose response, biochemical, C. elegans, fluorescence polarization (AID 1960)
T3 sequence (Q9XUB2 whole entry): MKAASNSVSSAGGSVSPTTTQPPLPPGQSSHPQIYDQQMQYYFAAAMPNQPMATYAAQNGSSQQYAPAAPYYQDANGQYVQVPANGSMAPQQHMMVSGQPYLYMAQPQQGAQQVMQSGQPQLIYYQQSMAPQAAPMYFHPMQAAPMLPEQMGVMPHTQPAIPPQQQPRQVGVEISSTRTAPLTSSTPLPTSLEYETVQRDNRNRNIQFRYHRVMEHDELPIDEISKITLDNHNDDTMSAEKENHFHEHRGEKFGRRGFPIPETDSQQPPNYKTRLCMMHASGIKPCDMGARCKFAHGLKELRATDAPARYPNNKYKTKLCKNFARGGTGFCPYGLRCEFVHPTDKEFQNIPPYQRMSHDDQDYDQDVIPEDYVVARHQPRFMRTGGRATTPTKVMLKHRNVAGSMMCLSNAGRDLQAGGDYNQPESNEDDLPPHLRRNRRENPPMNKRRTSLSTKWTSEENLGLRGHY

[11] = NIH-3T3 fibroblast cytotoxicity, dose response, cytotoxicity control, cell-based, fluorescence, Alamar Blue, secondary assay (AID 2327); format: functional;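 further: NIH-3T3 mouse fibroblasts cultured with fluconazole at 8 µg/mL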
[12] = C. albicans growth with fluconazole, confirmation, fluorescence, retest (AID 2467); format: functional, cell-based

T1 sequence (P11940 whole entry): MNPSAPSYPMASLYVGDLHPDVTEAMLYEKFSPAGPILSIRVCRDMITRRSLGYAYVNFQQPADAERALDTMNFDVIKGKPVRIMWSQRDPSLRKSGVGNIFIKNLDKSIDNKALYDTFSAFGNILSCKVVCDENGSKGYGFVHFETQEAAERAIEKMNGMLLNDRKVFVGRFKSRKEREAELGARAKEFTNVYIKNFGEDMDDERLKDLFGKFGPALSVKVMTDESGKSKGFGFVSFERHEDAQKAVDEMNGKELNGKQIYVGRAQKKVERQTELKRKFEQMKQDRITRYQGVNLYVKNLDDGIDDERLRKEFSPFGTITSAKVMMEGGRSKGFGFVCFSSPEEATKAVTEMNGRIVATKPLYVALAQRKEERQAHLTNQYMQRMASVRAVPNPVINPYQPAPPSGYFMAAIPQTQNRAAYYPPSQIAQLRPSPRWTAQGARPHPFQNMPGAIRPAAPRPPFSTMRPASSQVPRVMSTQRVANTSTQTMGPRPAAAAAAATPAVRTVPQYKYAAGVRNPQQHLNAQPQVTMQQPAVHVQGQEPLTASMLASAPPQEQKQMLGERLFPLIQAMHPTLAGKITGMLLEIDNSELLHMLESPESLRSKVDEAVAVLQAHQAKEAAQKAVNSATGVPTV

O=C(/C=C/c1ccc(-c2ccccc2[N+](=O)[O-])o1)c1ccco1
IC50 [1]: > 66 µM (inactive) | IC50 [2]: > 66 µM (inactive)

Cn1c(CCN2CCCCC2)nc2cc(NS(=O)(=O)c3ccc(F)cc3)ccc21
EC50 [3]: 51.6 µM (active) | EC50 [4]: 55.9 µM (active)

Nc1n[nH]c(SCc2cccc(Br)c2)n1
EC50 [5]: > 120 µM (not active) | EC50 [6]: > 120 µM (not active) | EC50 [7]: > 120 µM (not active)

CCCN1C(=O)c2cc(C(=O)Nc3cccc(C(C)=O)c3)ccc2C1Nc1cccc(C(C)=O)c1 (stereo not drawn)
IC50 [8]: > 79 µM (inactive)

CCOc1ccccc1NC(=O)Nc1ccc(OC)nc1
IC50 [1]: > 66 µM (inactive) | IC50 [2]: 35.9 µM (inactive) | EC50 [9]: 31.6 µM (active) | EC50 [10]: 29.5 µM (active)

COc1ccc(C(=O)Nc2ccc(-c3cn4ccsc4n3)cc2)cc1S(=O)(=O)N1CCOCC1
EC50 [5]: 60.6 µM (active) | EC50 [6]: > 120 µM (not active) | EC50 [7]: > 120 µM (not active)

CC(C)C(NC(=O)c1cccs1)C(=O)NC1=NCCS1 (stereo not drawn)
IC50 [1]: > 66 µM (inactive) | IC50 [2]: > 66 µM (inactive)

Cc1ccc(-c2nc3ccccc3o2)cc1NC(=S)NC(=O)c1cc2ccccc2o1
EC50 [3]: 5.17 µM (active) | EC50 [4]: 4.68 µM (active)

COc1cc(C(=O)Nc2cccc(-c3nnc(-c4ccco4)o3)c2)ccc1OC(C)=O
IC50 [8]: > 79 µM (inactive)

COc1ccc(C(=O)C2CCCN(Cc3cccn3-c3ccccn3)C2)c(C)c1 (stereo not drawn)
EC50 [11]: > 160 µM (inactive) | EC50 [12]: 0.706 µM (active)

CCOC(=O)c1cn(-c2ccc(F)c(F)c2)c2c(F)c(F)c(F)c(F)c2c1=O
EC50 [3]: 19.5 µM (active) | EC50 [4]: 22.4 µM (active)

O=c1c2ccccc2nc(CSc2[nH]cnc3ncnc2-3)n1-c1ccc(Cl)c(Cl)c1
IC50 [8]: > 79 µM (inactive)

Cc1cc2cc(CNC(=O)c3ccc4c(c3)OCO4)ccc2n1C
IC50 [1]: > 66 µM (inactive) | IC50 [2]: > 66 µM (inactive)

Clc1ccccc1CNc1nc2ccccc2n2cnnc12
EC50 [5]: 35.8 µM (active) | EC50 [6]: > 120 µM (not active) | EC50 [7]: 14.2 µM (active)

CC(=O)Nc1sc(C)c(C)c1C(=O)OCC(=O)Nc1cc(S(=O)(=O)N2CCCCC2)ccc1Cl
EC50 [3]: 43.1 µM (active) | EC50 [4]: 133 µM (active)

O=C(COC(=O)Cn1[nH]c(=O)c2ccccc2c1=O)Nc1c(Cl)cccc1C(F)(F)F
IC50 [8]: > 79 µM (inactive)
